Results from article doi:10.1101/2025.03.03.641126v1 (bioRxiv, 2025).

Tested on: Panc354 and MetPO1 cells
Experiment: Flow cytometry for CD133 after combination treatment
Format: cell-based, human
Conditions: representative cytometry plot, JM#21 10μM, Gem 1μM

Structure (SMILES): Nc1ccn([C@@H]2O[C@H](CO)[C@@H](O)C2(F)F)c(=O)n1 [gemcitabine]
- CD133 - PE positive cells: 14.5%
